The text below walks through data of publication PMC4579270, “Identification and Characterization of an Irreversible Inhibitor of CDK2” (Chemistry & Biology, 2015).

Assay [1] has as its system phosphorylation of Rb at Thr821 in SKUT-1B cells. The assay can be described thus: Inhibition of Rb phosphorylation in cells (western blot). It is filed as cell-based. The settings on record: for inhibition at 50 µM: Homo sapiens, Skut1B, 1 hr exposure. As for the experimental part: The cellular potency of NU6300 was examined by measuring the inhibition of Rb phosphorylation following exposure of SKUT-1B cells to the inhibitor for 1 hr. Pre-incubation with 50 μM NU6300 inhibited phosphorylation of Rb at […], a known CDK2 phosphorylation site, by 43%. […] This difference just reached statistical significance (p = 0.04). […] Representative of three different experiments. […] Protein expression levels of phospho-Rb ([…]) were normalized to the levels of total Rb in respective samples using densitometry. Relative protein expression levels are presented as percentage of inhibition of phosphorylation of Rb ([…]) compared with the control cells for each time point. Error bars represent the mean value and SD from three independent experiments. Statistical analysis was performed using the unpaired Student's t test, one-tailed. Western blot analysis was carried out as described previously ([Thomas et al., 2011]) using rabbit anti-[…] phospho-Rb antibody (Invitrogen) or mouse antihuman Rb antibody (BD Pharmingen) to detect phosphorylated and total retinoblastoma protein, respectively. Sample preparation is described in Supplemental Experimental Procedures. page 14: formate) before cryo-coolling. Data processing was carried out using programs of the CCP4 suite (CCP4, 1994). The structure of NU6300 bound to CDK2/cyclin A was solved by molecular replacement using Phaser (McCoy et al., 2007), using as the search model a high-resolution structure of a recruitment peptide bound to CDK2/cyclin A ((Cheng et al., 2006) PDB code 2CCH). A single clear solution was found with an inhibitor bound to each of the two copies of the binary complex in the asymmetric unit. This solution was then subjected to rigid body refinement in REFMAC (Murshudov et al., 1997), to reveal unambiguous electron density in the CDK2 ATP-binding site, consistent with the expected shape of the inhibitor. A model of NU6300 was created using Coot (Emsley et al., 2010). The inhibitor atoms were kept in all subsequent models during refinement carried out by additional rounds of manual rebuilding in Coot and restrained refinement in REFMAC5, including TLS refinement. Towards the end of refinement, waters were added using the Coot water picking utility and manually verified. Western blotting SKUT-1B cells (ATCC, Manassas, USA) were grown in MEM medium supplemented with non-essential amino acids, L-Glutamine, sodium pyruvate and 10% (v/v) foetal calf serum (Sigma, UK). […] Cells were harvested at different time points after the washout and lysed by adding PhosphoSafe extraction reagent (Merck, UK) containing protease inhibitor cocktail (Roche, UK) at the manufacturer's recommended dilution. The harvested cell suspension was placed in an eppendorf tube on ice, centrifuged at 13,000x g for 5 min, and the supernatant (cell lysate) removed for analysis. Subsequent western blot analysis was carried out as described in (Thomas et al., 2011) using rabbit anti-[…] phospho-Rb antibody (Invitrogen, Paisley, UK Cat No. 44-[…]) or mouse anti-human Rb antibody (BD Pharmingen, Oxford, UK Cat No. 554136) to detect phosphorylated and total retinoblastoma protein, respectively.

For assay [2], the system named is human MCF-7 breast carcinoma cells. Details: method as in Davies et al., 2002. The conditions noted are these: ref Davies et al., 2002; cited from earlier work.

Like-named read-outs stand apart in the source and are kept apart here.

In the case of `NS(=O)(=O)c1ccc(Nc2nc(OCC3CCCCC3)c3nc[nH]c3n2)cc1` [NU6102, 4-((6-(Cyclohexylmethoxy)-9H-purin-2-yl)amino)benzenesulfonamide], in assay [1] (50 μM, 1 hr of washout), the “inhibitory activity lost after washout” value is on record as “just over half”. In addition, the inhibition (usually the share of the control response that was lost under treatment) at 50 µM stood at 85% in assay [1] (before washout, read-out: inhibition of phosphorylation of Rb at Thr821) and 40% in assay [1] (then 1-hr washout in drug-free media, read-out: inhibition of phosphorylation of Rb at Thr821 after washout). Also, in assay [2], the GI50 (commonly the concentration giving 50% growth inhibition) was 8 µM.
